The results in this text go back to ChEMBL document CHEMBL1201862, “PubChem BioAssay data set” (2004).

Activity calls are given as the source filed them. Where only a bound is given, the exact number is not on record here.

A short description of experiment [1]: Trypanosoma cruzi growth suppression in host cells – NIH3T3 host cells, beta-gal luminescence, confirmation (AID 2044).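 Further: intracellular parasites grown in NIH/3T3 mouse fibroblasts as host cells; luminescent beta-galactosidase reporter signal from transgenic T. cruzi replicating inside host cells; inhibitors lower the luminescence signal.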 It counts as functional, cell-based.
In experiment [2] the target is T1, Carboxy-terminal domain RNA polymerase II polypeptide A small phosphatase 1 (Homo sapiens, UniProt Q9GZU7).
T1 sequence (Q9GZU7 whole entry): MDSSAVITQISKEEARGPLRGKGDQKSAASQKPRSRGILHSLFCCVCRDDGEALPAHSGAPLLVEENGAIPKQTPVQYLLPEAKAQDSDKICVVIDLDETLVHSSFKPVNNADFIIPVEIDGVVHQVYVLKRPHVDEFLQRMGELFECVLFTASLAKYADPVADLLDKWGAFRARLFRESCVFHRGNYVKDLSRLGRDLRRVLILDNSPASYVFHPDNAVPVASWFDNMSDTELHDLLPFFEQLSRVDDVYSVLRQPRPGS
The experiment in a line: CTDSP1 inhibitors, concentration-response, biochemical, absorbance readout, ultra-high-throughput screen actives (AID 540297). Format: functional.

A short description of experiment [3]: NIH3T3 cell viability loss – ATP luminescence, mouse fibroblasts, counter-screen, dose response (AID 2010).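 Further: cells exposed to compound for about 90 hours before reading.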 It counts as functional, cell-based. For orientation: A counterscreen serves to expose hits that act by an unwanted route or on another target.
The next experiment concerns the target Cytochrome P450 2C19 (Homo sapiens, UniProt P33261). Put plainly: Cytochrome panel assay with activity outcomes. Panel member name: p450-cyp2c19 Compounds with AC50 equal or less than 10 uM are considered active. It counts as functional. The conditions noted are these: read-out: AC50.
The target in a further experiment is T2, Cytochrome P450 1A2 (Homo sapiens, UniProt P05177).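 Further: PubChem cytochrome P450 panel assay, CYP1A2 panel member.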
T2 sequence (P05177 whole entry): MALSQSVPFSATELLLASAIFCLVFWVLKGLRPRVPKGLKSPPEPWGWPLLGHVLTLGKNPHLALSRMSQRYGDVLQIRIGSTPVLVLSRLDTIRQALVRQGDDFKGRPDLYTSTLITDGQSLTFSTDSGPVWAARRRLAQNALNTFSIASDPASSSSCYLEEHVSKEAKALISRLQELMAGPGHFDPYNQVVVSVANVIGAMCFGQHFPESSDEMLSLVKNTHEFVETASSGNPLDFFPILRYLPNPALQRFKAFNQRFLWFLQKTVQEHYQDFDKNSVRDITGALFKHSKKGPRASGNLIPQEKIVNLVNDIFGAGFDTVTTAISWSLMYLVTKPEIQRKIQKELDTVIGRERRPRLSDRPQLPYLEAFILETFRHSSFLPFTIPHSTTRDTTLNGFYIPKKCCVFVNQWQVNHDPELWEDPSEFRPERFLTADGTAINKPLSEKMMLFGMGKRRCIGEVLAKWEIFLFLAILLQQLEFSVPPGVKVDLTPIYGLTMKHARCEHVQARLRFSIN

The nature of experiment [4]: viability loss in HeLa cells – cytotoxicity control for MgcRacGAP inhibitor project, dose response (AID 624300). It counts as functional.
Experiment [5] has as its target T3, Rac GTPase-activating protein 1 (Homo sapiens, UniProt Q9H0H5).
T3 sequence (Q9H0H5 whole entry): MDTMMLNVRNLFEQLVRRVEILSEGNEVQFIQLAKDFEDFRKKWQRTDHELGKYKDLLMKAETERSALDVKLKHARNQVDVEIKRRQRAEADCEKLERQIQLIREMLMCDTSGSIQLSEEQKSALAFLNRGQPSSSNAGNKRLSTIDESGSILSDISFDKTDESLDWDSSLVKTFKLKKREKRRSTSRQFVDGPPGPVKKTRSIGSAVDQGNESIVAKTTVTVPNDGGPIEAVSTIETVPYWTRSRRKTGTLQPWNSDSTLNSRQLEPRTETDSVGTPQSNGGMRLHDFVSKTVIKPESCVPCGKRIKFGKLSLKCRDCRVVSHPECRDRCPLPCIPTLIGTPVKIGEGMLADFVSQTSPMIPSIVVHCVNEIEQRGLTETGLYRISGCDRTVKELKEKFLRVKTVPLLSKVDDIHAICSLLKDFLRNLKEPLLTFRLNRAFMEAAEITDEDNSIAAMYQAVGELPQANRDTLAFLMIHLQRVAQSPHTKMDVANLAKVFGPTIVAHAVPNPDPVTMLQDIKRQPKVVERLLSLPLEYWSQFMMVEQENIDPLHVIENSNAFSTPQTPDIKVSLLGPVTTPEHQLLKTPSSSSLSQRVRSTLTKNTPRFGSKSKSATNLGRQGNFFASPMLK
Put plainly: blockers of MgcRacGAP-driven Rac1 GTP hydrolysis – biochemical, ADP Hunter fluorescence, primary and confirmatory, confirmation (AID 624330). It counts as functional.

Experiment [6] can be described thus: viability of PTEN-deleted HCT116 cells – cell-based, HCT116 PTEN knockout, dose response (AID 1047).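 Further: HCT116 colon tumor cells with PTEN knocked out; cells exposed to compound for 60 hours before readout; potency for loss of cell viability measured by luminescence.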 Format: functional.
Experiment [7] in a line: viability of HCT116 lacking mutant beta-catenin – cell-based, human colon tumor, dose response (AID 1045).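 Further: HCT116 colon tumor cells with beta catenin knocked out; cells exposed to compound for 60 hours.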 Format: functional.
The next experiment deals with Vero. Put plainly: cells. It counts as functional. The conditions noted are these: Chlorocebus sabaeus.
Another experiment concerns the target Estrogen receptor beta (Homo sapiens, UniProt Q92731).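 Further: recombinant ER-beta bound to coactivator SRC1 peptide in presence of estradiol agonist; inhibitors block coactivator peptide binding and lower the FRET signal.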
The nature of experiment [8]: HIV-1 AD8 envelope cell-cell fusion blockers – cherry-pick, dose response (AID 652062).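 Further: luciferase signal from cell-cell fusion driven by HIV-1 clade B AD8 Env; potency is for inhibitors of fusion seen as a drop in luminescence.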 Format: functional, cell-based.
A short description of experiment [9]: microbe, parasite or virus in culture. The conditions noted are these: Mycobacterium tuberculosis. It counts as functional.
A short description of experiment [10]: blockers of bursicon-stimulated LGR2 cAMP reporter – cell-based, HEK293, CRE-luciferase reporter, cherry pick, set 2, dose response (AID 743343).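 Further: transfected cells were stimulated with diluted bursicon conditioned medium after compound addition.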 Format: functional.
Experiment [11] in a line: blockade of melanocortin 4 receptor signaling – cell-based, plate reader, cherry pick, counter-screen for LGR2 antagonist project, dose response (AID 743444).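 Further: transfected HEK 293 cells stimulated with alpha-MSH peptide; potency of inhibitors of the alpha-MSH evoked signal.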 It counts as functional.
The nature of experiment [12]: A549 cell cytotoxicity, dose response, cytotoxicity control, plate reader, cherry-pick, antagonist series (AID 743412). Format: functional, cell-based.
Experiment [13] can be described thus: toxicity toward HepG2 liver cells – cell-based, plate reader, cherry-pick, antagonist series, cytotoxicity control, dose response (AID 743416). Format: functional.
Experiment [14] can be described thus: alpha-synuclein stem-loop luciferase translation blockers – H4 neuroglioma cells, luminescence, confirmation (AID 1988). Format: functional, cell-based.
Experiment [15] is described as follows: Luminescence Cell-Based Dose Response HTS to Identify Inhibitors of 5'UTR Stem-Loop Driven Prion Protein mRNA Translation in H4 Neuroglioblastoma Cells. [Related pubchem assays: 1827 (Project Summary), 1813 (Primary HTS)]. Format: functional.
Another experiment concerns the target Genome polyprotein (dengue virus type 2, UniProt P29990). Put plainly: flavivirus cap methylation enzyme inhibition – biochemical, confirmation dose response, primary screen (AID 588689). Format: functional.
For experiment [16], the target named is T4, High affinity choline transporter 1 (Homo sapiens, UniProt Q9GZV3).
T4 sequence (Q9GZV3 whole entry): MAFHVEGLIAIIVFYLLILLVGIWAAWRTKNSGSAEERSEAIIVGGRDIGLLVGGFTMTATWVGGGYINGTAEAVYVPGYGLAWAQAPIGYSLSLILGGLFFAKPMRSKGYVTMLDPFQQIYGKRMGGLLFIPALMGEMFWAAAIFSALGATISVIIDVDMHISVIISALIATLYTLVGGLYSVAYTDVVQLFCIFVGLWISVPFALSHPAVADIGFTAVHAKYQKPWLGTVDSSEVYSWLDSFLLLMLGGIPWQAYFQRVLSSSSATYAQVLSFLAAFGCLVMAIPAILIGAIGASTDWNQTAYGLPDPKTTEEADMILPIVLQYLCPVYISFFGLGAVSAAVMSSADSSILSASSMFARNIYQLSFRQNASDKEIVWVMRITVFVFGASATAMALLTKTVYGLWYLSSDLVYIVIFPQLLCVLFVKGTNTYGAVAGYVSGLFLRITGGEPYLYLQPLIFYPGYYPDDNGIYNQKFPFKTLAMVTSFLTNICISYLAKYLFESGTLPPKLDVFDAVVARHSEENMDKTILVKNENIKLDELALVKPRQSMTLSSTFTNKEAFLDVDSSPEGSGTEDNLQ
The experiment in a line: human choline transporter blockers, potency – cell-based, 5-point CRC, membrane potential dye, dose response (AID 504840). It counts as functional.

Experiment [17] can be described thus: Luminescence Cell-Based Dose Retest to Confirm Inhibitors of Cancer Stem Cells. [Related pubchem assays (depositor defined):AID2717, AID2721]. It counts as functional. To be noted: Homo sapiens.
A further experiment relates to SN12K1. Put plainly: cells. Format: functional. The conditions noted are these: Homo sapiens.
The subject of the next experiment is P388/ADR. Put plainly: cells. It counts as functional. To be noted: Mus musculus.
For the next experiment, the system named is INS1. Put plainly: INS-1E survival protection against cytokine death – cell-based, luminescence, retest, dose response (AID 449756).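 Further: cell death triggered by IL-1 beta plus TNF-alpha plus IFN-gamma mixture; protective hits raise ATP signal compared with cytokine alone wells.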 It counts as functional. The conditions noted are these: Rattus norvegicus.

Chain of Estrogen receptor beta (Q92731 whole entry, the tested form may be a part): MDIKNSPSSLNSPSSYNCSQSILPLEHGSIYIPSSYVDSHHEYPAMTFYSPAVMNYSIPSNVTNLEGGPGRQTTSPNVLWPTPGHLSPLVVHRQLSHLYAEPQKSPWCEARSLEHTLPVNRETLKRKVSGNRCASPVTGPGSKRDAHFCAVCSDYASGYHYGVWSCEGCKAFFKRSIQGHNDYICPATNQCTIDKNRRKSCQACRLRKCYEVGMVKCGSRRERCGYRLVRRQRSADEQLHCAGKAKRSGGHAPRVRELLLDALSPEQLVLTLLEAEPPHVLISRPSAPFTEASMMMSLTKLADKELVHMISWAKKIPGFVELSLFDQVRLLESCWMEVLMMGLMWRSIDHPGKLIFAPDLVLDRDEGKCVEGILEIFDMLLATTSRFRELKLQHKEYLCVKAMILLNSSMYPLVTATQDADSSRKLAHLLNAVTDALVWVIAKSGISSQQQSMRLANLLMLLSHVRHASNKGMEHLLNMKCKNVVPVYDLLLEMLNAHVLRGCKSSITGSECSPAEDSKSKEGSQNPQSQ
Chain of Genome polyprotein (P29990 2492-3391 limits assumed): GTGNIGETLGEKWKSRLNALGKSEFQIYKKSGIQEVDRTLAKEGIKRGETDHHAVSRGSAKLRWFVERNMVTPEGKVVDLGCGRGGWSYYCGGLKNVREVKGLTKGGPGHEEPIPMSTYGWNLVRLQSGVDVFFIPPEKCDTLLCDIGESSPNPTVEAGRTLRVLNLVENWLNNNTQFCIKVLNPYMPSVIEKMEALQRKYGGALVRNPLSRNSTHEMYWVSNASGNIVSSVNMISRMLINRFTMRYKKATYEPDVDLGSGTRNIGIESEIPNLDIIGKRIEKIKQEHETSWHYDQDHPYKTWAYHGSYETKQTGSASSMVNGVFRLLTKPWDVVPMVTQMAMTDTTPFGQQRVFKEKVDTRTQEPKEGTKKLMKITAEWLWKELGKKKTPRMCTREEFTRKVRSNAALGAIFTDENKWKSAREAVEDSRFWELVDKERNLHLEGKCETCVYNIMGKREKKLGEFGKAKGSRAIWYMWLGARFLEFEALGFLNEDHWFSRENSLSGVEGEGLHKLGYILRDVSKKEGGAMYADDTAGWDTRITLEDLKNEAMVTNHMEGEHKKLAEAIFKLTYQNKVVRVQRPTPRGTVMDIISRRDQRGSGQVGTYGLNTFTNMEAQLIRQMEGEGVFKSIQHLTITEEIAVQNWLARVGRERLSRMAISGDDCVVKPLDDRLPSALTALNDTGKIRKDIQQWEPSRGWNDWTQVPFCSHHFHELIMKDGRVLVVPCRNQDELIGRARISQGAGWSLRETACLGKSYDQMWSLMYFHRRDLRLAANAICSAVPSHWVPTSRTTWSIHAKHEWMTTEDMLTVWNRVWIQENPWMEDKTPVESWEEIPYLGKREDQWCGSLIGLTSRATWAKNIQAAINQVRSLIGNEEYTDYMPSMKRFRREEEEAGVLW
Chain of Cytochrome P450 2C19 (P33261 whole entry): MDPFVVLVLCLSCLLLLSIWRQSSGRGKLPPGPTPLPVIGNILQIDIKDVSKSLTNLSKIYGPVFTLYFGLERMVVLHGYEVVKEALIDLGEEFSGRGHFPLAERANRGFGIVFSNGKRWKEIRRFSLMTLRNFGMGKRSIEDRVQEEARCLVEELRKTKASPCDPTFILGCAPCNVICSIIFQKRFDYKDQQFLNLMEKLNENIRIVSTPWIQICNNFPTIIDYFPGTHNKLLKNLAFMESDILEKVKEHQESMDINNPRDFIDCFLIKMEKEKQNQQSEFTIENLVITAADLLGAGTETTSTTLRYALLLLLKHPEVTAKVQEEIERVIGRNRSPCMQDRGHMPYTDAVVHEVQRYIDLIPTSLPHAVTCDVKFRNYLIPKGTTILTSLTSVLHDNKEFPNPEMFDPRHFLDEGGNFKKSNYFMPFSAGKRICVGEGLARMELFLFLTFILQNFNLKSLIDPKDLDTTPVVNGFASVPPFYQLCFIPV

Usually EC50 stands for the midpoint of the concentration-response curve. As usually defined, the IC50 is the midpoint of a concentration-inhibition curve. `Cc1cccc2sc(NC(=O)C3CCN(S(=O)(=O)c4cc([N+](=O)[O-])ccc4Cl)CC3)nc12`: the EC50 in [1] is 0.63 µM (active); in experiment [3] it was > 30 µM (not active). In addition, the IC50 in experiment [2] is 3.44 µM (active). As usually defined, the AC50 is the concentration at which the activity in the assay is half-maximal. Consider `CN(C)CCCN1c2ccc(O)cc2Sc2ccc(Cl)cc21` [7-HYDROXYCHLORPROMAZINE], for which the AC50 at Cytochrome P450 2C19 was 0.794 µM (inconclusive); at Cytochrome P450 1A2, 0.631 µM (inconclusive). In addition, the CC50 in experiment [4] was 84.5 µM (active). For the same molecule, the IC50 in experiment [5] is 11.6 µM (active). Regarding `Cc1ccc(-c2[nH]c3ccccc3c2SCCNC(=O)c2ccc(S(=O)(=O)N3CCOCC3)cc2)cc1`, the EC50 in [6] is 112 µM (active); in [7], 152 µM (active). For `O=C(/C=C/c1ccc([N+](=O)[O-])cc1)/C=C/c1ccco1`, in experiment [4], the CC50 is 100 µM (active). Turning to `COc1cc(OC)c(NC(=O)C(=O)CC(=O)c2ccc(C)cc2C)cc1Cl`, the CC50 in the experiment on Vero is 9.4 µM (active). Consider `COCCCNc1nc2c([nH]1)c(=O)[nH]c(=O)n2C`, for which the IC50 at Estrogen receptor beta is on record as > 50 µM (not active). Same read-out and setting: as for `CN1CCCC(OC(=O)c2ccc3c(c2)OCCO3)C1` (centres undefined), the figure is > 50 µM (not active). As to `O=C(C[C@@H]1C[C@H]2c3cc(NC(=O)Nc4ccccc4)ccc3O[C@H]2[C@H](CO)O1)NCc1cccnc1`, in [8], the AC50 was 1.64 µM (active). Take `COc1ccc(-c2cc3nc(CCl)nc(O)c3s2)cc1`: in [9], the CC50 is 6.88 µM (active). For the same molecule, the AC50 in experiment [10] is 6.33 µM (active); in [11] it was 8.71 µM (active); in experiment [12] it was 16.8 µM (active); in [13], 17.1 µM (active). Further, the EC50 is 11 µM (active) in [14] and 11.8 µM (active) in experiment [15]. As for `CC(=O)n1cc(C=C2C(=O)NC(=O)NC2=O)c2ccccc21`, on Genome polyprotein, the IC50 is 42.8 µM (active). Regarding `COc1cccc(/C=C2/C(=O)NN(c3ccccc3)C2=O)c1`, on Genome polyprotein, the IC50 was 45.8 µM (active). As for `CCOC(=O)CN1CC23C=CC(O2)C(C(=O)Nc2cc(OC)ccc2OC)C3C1=O` (centres undefined), on Estrogen receptor beta, the IC50 is recorded as > 50 µM (not active).

For the molecule `O=C(Nc1ccccc1C(F)(F)F)N1CCN(c2ccc3nnc(-c4ccc(F)cc4)n3n2)CC1`, the CC50 with Vero was > 25 µM (active).

On to `N#C[C@@H]1[C@H](c2ccc(C#Cc3cccc(F)c3)cc2)[C@@H](CO)N1C(=O)C1CCCC1`, for which the AC50 in experiment [10] is 16.5 µM (active); in experiment [11], 8.4 µM (active); in experiment [13], 27.1 µM (active).

Take `O=C(OCc1nc(O)c2sccc2n1)c1ccc(Cl)s1`: in experiment [16], the IC50 was 12.6 µM (active). As to `Cc1ccc(-n2nnnc2Sc2ccc(S(=O)(=O)NCCN(C)C)cc2[N+](=O)[O-])cc1`, the EC50 was 2.26 µM (active) in [6] and 2.05 µM (active) in experiment [7]. Also, the AC50 in [17] was 2.59 µM (active).

For `CN1C(=O)/C(=C2\SC(N)=NC2=O)c2ccccc21`, the values for the EC50 in [6] and in [7] were 33.2 µM (active) and 44.1 µM (active), respectively. One may read the GI50 as the concentration giving 50% growth inhibition. `COC1C(OC(=O)/C=C/C=C/C=C/C=C/C(=O)O)CCC2(CO2)C1C1(C)OC1CC=C(C)C` (centres undefined): the figures for the GI50 in the experiment on SN12K1 and with P388/ADR were 16.1 µM (inactive) and 13.2 µM (inactive), respectively. As for `CCn1cc(/C=C(\NC(=O)c2ccccc2F)C(=O)NCCCn2ccnc2)c2ccccc21`, the IC50 in experiment [16] was 14.5 µM (active). As for `O=C(c1ccc2c(c1)OCCO2)C1CCN(S(=O)(=O)c2ccc(F)cc2)CC1`, the AC50 in experiment [12] and in [13] was > 52 µM (inactive) each time. As for `CCCNCC1COc2ccccc2O1` (centres undefined), the IC50 on Estrogen receptor beta is 4.1 µM (active). For `C=CCn1c(SCC(=O)c2[nH]c(C)c(C(=O)OCC)c2C)nc2scc(-c3ccc(OC)c(OC)c3)c2c1=O`, the EC50 in [6] is 6.55 µM (active); in experiment [7], 7.26 µM (active). Besides, the AC50 was 3.37 µM (active) in the experiment with INS1 and 2.05 µM (active) in experiment [17]. For the molecule `O=C(Cn1ncc2c3ccccc3n(Cc3ccccc3)c2c1=O)NCCN1CCOCC1`, the IC50 in experiment [16] was 11.2 µM (active).

In the case of `O=c1cc(-c2ccccc2)c2c(O)cc(O)cc2o1`, in [16], the IC50 was 13.7 µM (active).

On to `Cc1ccc(-c2cc(C(=O)N3CCN(c4ccc(O)cc4)CC3)c3ccccc3n2)cc1`, for which, in [4], the CC50 is 100 µM (active). The AC50 in [17] is 6.6 µM (active). Moreover, in experiment [5], the IC50 is 88 µM (active).
